“And” between values parts separate entries of the source, which are not always exact repeats. Equal values may be shown once. “Also recorded” adds a separate entry of the source.
Assays:
[1] = system: acrolein-exposed striatal synaptosomes; test: Protection against acrolein-induced thiol loss in striatal synaptosomes (DTNB); assay type: cell-based, rat; conditions: for cytoprotection / thiol protection in acrolein-exposed synaptosomes: pH 7.4, test compound 500 μM
Procedure: Therefore, as an investigation of possible cytoprotection, a determination was made of the relative abilities of the above 1,3-dicarbonyl structural series to prevent thiol loss in acrolein-exposed rat striatal synaptosomes (isolated CNS nerve terminals). Synaptosomes were prepared according to the methods of LoPachin et al.^52 and were exposed (Krebs buffer, pH 7.4, 30° C.×15 mins) to graded concentrations of acrolein (1-1000 μM) alone or in combination with a 1,3-dicarbonyl derivative or control compound (500 μM). […] The respective IC50s and 95% confidence intervals were calculated by the […] (Prism 3.0, GraphPad Software). The selected 1,3-dicarbonyls are carbanion nucleophiles and, therefore, the analyses also included NAC as a representative thiolate-type nucleophile. Studies were conducted to assess the in vitro toxicity of the selected enol derivatives (FIG. 4).
Studies were carried out using isolated brain nerve terminals (striatal synaptosomes) exposed to acrolein as a model of electrophile-induced toxicity, as illustrated in FIG. 5A-5B. Acrolein is a soft electrophile that inhibits protein function by forming adducts with soft nucleophilic cysteine residues and thereby causes synaptosomal toxicity.

MN9D cells [2] = test: Cell viability (trypan blue) in acrolein-exposed MN9D cultures; conditions: for protection against acrolein-induced cell death (words): pre-incubation 60 minutes, 750 μM each (phloretin 100 μM)
Procedure: (§1) As a more complex biological model, a determination was made of the relative abilities of the 1,3-dicarbonyls to protect MN9D cells, a dopaminergic cell line, from acrolein- (FIG. 6) or hydrogen peroxide (H2O2)-induced cell death (FIG. 7). Briefly, two days after plating, cells were incubated with AcAc (750 μM) for one hr followed by exposure to graded concentrations of either acrolein (0.50-150 μM×24 hrs) or H2O2 (50-750 μM×24 hrs). Cell viability was determined by trypan blue (0.1%) exclusion. Living cells were counted in a hemocytometer and total cells per dish were calculated.

Male rats = test: 2-ACP toxicity in rats (14 day i.p. dosing); assay type: in vivo, rat; conditions: i.p. 100, 200 or 300 mg/kg/d×14 days
Procedure: (§2) This study was carried out in accordance with the NIH Guide for Care and Use of Laboratory Animals and approved by the Montefiore Medical Center Animal Care and Use Committee. Adult male rats (Sprague-Dawley, Taconic Farms, Germantown, N.Y., USA) were used in this study. Rats were housed individually in polycarbonate boxes, and drinking water and Purina Rodent Laboratory Chow (Purina Mills, Inc., St. Louis, Mo., USA) were available ad libitum.
(§3) Male rats (200-250 gm) were injected (i.p.) with 2-ACP at three different daily dose-rates: 100, 200 or 300 mg/kg/d×14 days. Rats were observed 3 times per week for signs of developing toxicity; i.e., body weight loss, general appearance, water/food consumption, gait performance and home cage behavior. […] As a model of in vivo oxidative stress, rats (200-250 gm) were administered 30 μl of carbon tetrachloride (CCl4) in corn oil (ip) following six daily doses of 2-ACP (200 mg/kg/d) by gavage. […] These findings indicate that 2-ACP decreased the degree of hepatic cell death caused by CCl4.

[3] = pKa and enolate ionization of enol compounds; assay type: physicochemical; conditions: for fraction in the anionic enolate state: pH 7.4 (neutral / cellular pH)
[4] = Kinetic assay of acrolein-induced N-acetyl cysteine (NAC) sulfhydryl loss (DTNB method); conditions: for sulfhydryl (NAC) protection, pre-incubation: acrolein pre-incubated with test compound, NAC added one hour later; for rate of sulfhydryl loss (mean rate±SE): NAC + acrolein 150 μM + test compound 50 μM co-incubated, Krebs buffer pH 7.4, 30° C.; for ability to slow acrolein-induced NAC thiol loss: co-incubation, test compound 50 μM, pH 7.4 (FIG. 3A)
Text: As an index of cytoprotection, these studies focused on the abilities of 1,3-dicarbonyl compounds to prevent electrophile-induced loss of protein and non-protein sulfhydryl groups. This experimental focus is based on substantial evidence that soft electrophiles, like acrolein, produce toxicity by forming Michael-type adducts with soft nucleophilic thiolate (anionic sulfhydryl) groups on functionally critical proteins^9, 17, 22, 56, 57 (reviewed in^28, 58, 62, 77, 94). […] To test this hypothesis, a determination was made of the ability of AcAc and other structurally related enol analogs to prevent sulfhydryl (nucleophile) adduction by acrolein (electrophile)^56. […] Free sulfhydryl concentrations were determined over time (up to 15 mins) by the DTNB method of LoPachin et al.^52.
Therefore, as a kinetic index of competitive thiol protection by enolate sequestration, the relative in vitro abilities of 1,3-dicarbonyl compounds and phloretin to slow the rate of acrolein-induced sulfhydryl loss were measured.

CCl4-intoxicated rats = test: Protection from carbon tetrachloride-induced hepatotoxicity in rats; assay type: in vivo, rat; conditions: 2-ACP 200 mg/kg/d by gavage, six daily doses, then CCl4 30 μl ip; plasma 24 hours after
Procedure: as §2, §3

[5] = Ferrous ion chelation (method of Dairam et al.); conditions: for EC50: read-out: concentration at which 50% Fe^2+ chelation occurs
[6] = system: acrolein-exposed striatal synaptosomes; test: Protection against acrolein-induced inhibition of 3H-dopamine transport in striatal synaptosomes; assay type: cell-based, rat; conditions: for change in acrolein IC50 for inhibition of DA transport: test compound 500 μM, Krebs buffer pH 7.4, 30° C., 15 mins (FIG. 5A)
[7] = Free radical scavenging (DPPH absorbance method of Ak and Gulcin)
Procedure: The relative abilities of selected 1,3-dicarbonyl compounds to scavenge free radicals were determined using the spectrophotometric method of Ak and Gulcin (2008)^4 that measures changes in the absorbance of the 2,2-diphenyl-1-picrylhydrazyl radical.

Aqueous solubility = assay type: physicochemical
MN9D cells [8] = test: Cell viability (trypan blue) in H2O2-exposed MN9D cultures; conditions: for protection against H2O2-induced cell death: test compound 750 μM (phloretin 100 μM)
Procedure: as §1
This system represents a more complete model of oxidative stress since the hydroxyl radical formed from intracellular H2O2 during the Fenton reaction, subsequently mediates the generation of toxic aldehyde by-products such as acrolein and 4-hydroxy-2-nonenal (HNE).

[9] = co-incubation with test compound 500 μM

Compound	protection against acrolein-induced cell death (words) (MN9D cells [2])	pKa [3]	fraction in the anionic enolate state [3]	sulfhydryl (NAC) protection, pre-incubation [4]	protection against H2O2-induced cell death (MN9D cells [8])	change in acrolein IC50 for inhibition of DA transport [6]	other results
CC(=O)C1CCCC1=O (centres unmarked) [2-ACP, 2-acetylcyclopentanone]	completely prevented cell death	7.8	~50%	completely preserved	nearly complete protection	–	increase in acrolein IC50 for synaptosomal thiol loss [1, 9]: 15 fold; concentration dependence of protection against acrolein (MN9D cells [2]; graded concentrations: 2-ACP 100-750 μM, AcAc 250-1000 μM (range-finding 50-1000 μM)): significant increases in the LC50; overt signs of toxicity (body weight loss, appearance, water/food consumption, gait, home cage behavior) (Male rats): did not cause overt signs of toxicity; sulfhydryl (NAC) protection, co-incubation ([4]; all chemicals added simultaneously): complete sulfhydryl protection; reduction of plasma alanine transferase (ALT) relative to toxicant only (CCl4-intoxicated rats): 40%; reduction of plasma aspartate transferase (AST) relative to toxicant only (CCl4-intoxicated rats): 52%; EC50 [5]: 211 µM; increase in acrolein IC50 for 3H-DA transport inhibition [6, 9]: 15 fold; DPPH scavenging rate, fold slower than curcumin ([7]; relative to curcumin): 30-40 fold; water solubility (Aqueous solubility): water soluble; concentration dependence of protection against H2O2 (MN9D cells [8]; graded concentrations: 2-ACP 250-750 μM, AcAc 500-1500 μM (range-finding 50-1000 μM)): significant increases in the LC50 of H2O2
O=C1CCC(=O)C1 [CPD, 1,3-cyclopentanedione]	completely prevented cell death	–	–	modestly effective	ineffective	–	–
CCOC(=O)CC(=O)OCC [DEM, diethyl malonate]	neither DEM nor HD were effective	12.9	< 0.1%	–	ineffective	Neither DEM nor HD significantly affected	cytoprotection / thiol protection in acrolein-exposed synaptosomes [1]: not cytoprotective; increase in enolate concentration ([3]; pH 9.0 relative to pH 7.4): ~100 fold
CC1(C)CC(=O)CC(=O)C1 [DMD, 5,5-Dimethyl-1,3-cyclohexanedione]	did not provide protection	5.3	99%	significant thiol protection	–	largest increases in the acrolein IC50	cytoprotection / thiol protection in acrolein-exposed synaptosomes [1]: powerful cytoprotectant; protection against acrolein-induced cell death in serum-free medium (MN9D cells [2]): substantial increases in the acrolein LC50; rate of sulfhydryl loss (mean rate±SE) [4]: −2.4±0.3 nmol SH sec^−1
O=C(O)CN(CCN(CC(=O)O)CC(=O)O)CC(=O)O [EDTA]	–	–	–	–	–	–	EC50 [5]: 31 µM
CC(=O)CCC(C)=O [HD, 2,5-hexanedione, reference compound]	neither DEM nor HD were effective; also recorded: slight increase in LC50	–	–	did not affect the rate of acrolein-induced thiol loss	ineffective	Neither DEM nor HD significantly affected	ability to slow acrolein-induced NAC thiol loss [4]: not effective
CC(=O)C(C)C(C)=O [MPD, 3-methyl-2,4-pentanedione]	–	10.8	–	–	–	–	ability to slow acrolein-induced NAC thiol loss [4]: minimally protective
CC1(C)OC(=O)CC(=O)O1 [Meld. Acid, 2,2-dimethyl-1,3-dioxane-4,6-dione]	did not provide protection	4.8	–	significant thiol protection	–	largest increases in the acrolein IC50	protection against acrolein-induced cell death in serum-free medium (MN9D cells [2]): substantial increases in the acrolein LC50
CC(=O)N[C@@H](CS)C(=O)O [NAC, N-acetyl cysteine, reference compound]	nearly complete protection; also recorded: completely prevented cell death	–	–	–	significantly less efficacious; also recorded: less protective	largest increases in the acrolein IC50	Fe^2+ chelating activity [5]: little, if any, Fe^2+ chelating activity; DPPH radical scavenging [7]: modest free radical scavenging
CC(=O)CC(=O)C(F)(F)F [TFPD, 1,1,1,-trifluoro-2,4-pentanedione]	significantly increased the acrolein LC50	–	> 99% and 99%	modestly effective	modestly effective	more modest	cytoprotection / thiol protection in acrolein-exposed synaptosomes [1]: some thiol protection; increase in acrolein LC50 (MN9D cells [2]; test compound 750 μM pre-incubation): ~7 fold; rate of sulfhydryl loss (mean rate±SE) [4]: −52.1±5 nmol SH sec^−1; thiol protection against acrolein at elevated pH ([4]; pH 9.0): none was observed; also recorded: did not increase; protection against H2O2-induced cytotoxicity (MN9D cells [8]; FIG. 7): 3 fold
C=CC=O [acrolein]	–	–	–	–	–	–	IC50 ([1]; Rattus norvegicus, acrolein alone, 0.001-1 mM, read-out: IC50 of acrolein for loss of synaptosomal sulfhydryl groups): 74 µM; rate of sulfhydryl loss (mean rate±SE) [4]: −78.4±7 nmol SH sec^−1; rate of acrolein-induced sulfhydryl (NAC) loss (mean rate±95% confidence interval) ([4]; pH 7.4): -78.4 ± 6.2 nmol/s; IC50 ([6]; Rattus norvegicus, acrolein alone, 0.001-1 mM, read-out: IC50 of acrolein for decrease in membrane 3H-DA transport): 66 µM
COc1cc(/C=C/C(=O)CC(=O)/C=C/c2ccc(O)c(OC)c2)ccc1O [curcumin, reference compound]	–	8	–	–	–	–	water solubility (Aqueous solubility): insolubility in aqueous solutions
